The subject of series [1] is T24 (human urinary bladder carcinoma) cells. Kind of series: MTT cell viability assay, T24. The class given is cell-based. The settings on record: 24 h and 48 h; 5, 10, 15 and 15 μM; vs untreated control. How it is done: (§1) The cells were seeded into 96-well plates at a starting density of 10^4 cells per well and cultured overnight before DEA was added to the medium for 24 h and 48 h. The medium was changed to a fresh one containing 0.5% of 3-[4,5-dimethylthiazol-2-yl]-2,5-diphenyl-tetrazolium bromide (MTT+) for an additional 3 hours, then the MTT+ reaction was terminated by adding HCl to 10 mM final concentration. The amount of blue formazan dye formed from MTT+ was proportional to the number of live cells, and was determined with an Anthos Labtech 2010 ELISA reader at 550 nm. All experiments were run in at least 4 replicates and repeated 3 times.
The effect of desethylamiodarone was measured in T24 (human urinary bladder carcinoma), A549 (human lung adenocarcinoma epithelial), B16F10 (mice melanoma), HeLa (human cervix adenocarcinoma), 4T1 (mouse mammary carcinoma) cell lines. Cells were treated with increasing concentrations of desethylamiodarone for 24 and 48 h. Cell growth was assessed by measuring metabolic activity, which reflects viability in the MTT-test in the course of 24 h, 48 h of continued exposure to desethylamiorarone. The untreated cells served as negative controls. […]
T24 cells were exposed for 24 h (A), 48 h (B) to […], 10 μM, 15 μM and 15 μM desethylamiodarone (filled bars). Viability of the cells was detected by the MTT+ method. […]
(Formazan colour is commonly taken as a measure of viable cells.)

For series [2], the system named is B16F10 (mice melanoma) cells. As to the kind of experiment: MTT cell viability assay, B16F10. It counts as cell-based. Conditions: 24 h and 48 h; 2.5, 5, 7.5 or 10 μM; vs untreated control. How it is done: The cells were seeded into 96-well plates at a starting density of 10^4 cells per well and cultured overnight before DEA was added to the medium for 24 h and 48 h. […] The amount of blue formazan dye formed from MTT+ was proportional to the number of live cells, and was determined with an Anthos Labtech 2010 ELISA reader at 550 nm. All experiments were run in at least 4 replicates and repeated 3 times. The effect of desethylamiodarone was measured in T24 (human urinary bladder carcinoma), A549 (human lung adenocarcinoma epithelial), B16F10 (mice melanoma), HeLa (human cervix adenocarcinoma), 4T1 (mouse mammary carcinoma) cell lines. Cells were treated with increasing concentrations of desethylamiodarone for 24 and 48 h. Cell growth was assessed by measuring metabolic activity, which reflects viability in the MTT-test in the course of 24 h, 48 h of continued exposure to desethylamiorarone. The untreated cells served as negative controls. The viability of the cells, was lower in all DEA-treated than in the control group, with the difference being statistically significant. […] B16F10 cells were incubated with the indicated concentrations (2.5, 5, 7.5 or 10 μM) of desethylamiodarone for 24 h (A) and 48 h (B) and cell viability was measured by MTT assay (filled bars). Untreated cells served as controls. […]

In series [3] the test system is DU-145 prostate cancer cell line. Kind of series: MTT cell viability assay, DU-145. The class given is cell-based. The settings on record: increasing concentrations, 24, 48 and 72 hours. How it is done: as §1
145 cells were exposed to increasing concentrations of DEA for 24, 48 and 72 hours. Viability of the cells was detected by the MTT method. Untreated cells served as controls.

Series [4] relates to B16F10 mice melanoma cell line. As to the kind of experiment: Colony formation assay, B16F10. It counts as cell-based. The settings on record: one week; 1, 1.5, 2, 2.5 or 3 μM. As to the method:
Cells were trypsinized and plated in triplicate into 6-well plates at 500 cells/well. Cells were treated with different concentration of Dea. After 7 days of incubation, cells were washed and stained with Coomassie-blue, and the colonies containing more than 50 cells were counted. The number of colonies were determined and normalized to the number of colonies in controls. To assess the recovery ability of cells that survived treatment, long-term (7 days) colony formation assay was performed. […] B16F10 cells were incubated with the indicated concentrations of desethylamiodarone (1, 1.5, 2, 2.5 or 3 μM for one week and cell colonies were fixed, stained and counted. (A-B) Data are expressed as the mean±SD of ≧3 experiments; a p<0.01 is considered statistically significant. The data shown on FIG. 6 provide evidence that DEA can be useful to treat melanoma.

Series [5] relates to AKT (protein kinase B). Kind of series: Western blot of Akt phosphorylation. Conditions: 5-10-15 μM, 6 hours; T24, B16F10 cell lines. It counts as cell-based, human. How it is done:
10^6 cells were seeded into regular plates and treated as for the cell viability assay. Cells were harvested at intervals in a chilled lysis buffer containing 0.5 mM sodium-metavanadate, 1 mM ethylenediaminetetraacetic acid (EDTA) and protease inhibitor cocktail in phosphate-buffered saline (PBS). Probes were boiled and subjected to 10% sodium dodecyl sulphate polyacrylamide gel electrophoresis then transferred to nitrocellulose membranes. The membranes were blocked in 5% low fat milk for 1.5 h at room temperature then exposed to primary antibodies at 4° C. overnight in blocking solution. Appropriate horseradish peroxidase-conjugated secondary antibodies were used at a 1:5000 dilution (anti-mouse and anti-rabbit IgGs; Sigma-Aldrich, Steinheim, Germany) and visualized by enhanced chemiluminescence (Amersham Biosciences, Piscataway, N.J., USA). All experiments were repeated 3 times.
To determine the downstream consequences of DEA treatment, we examined the phosphorylation status of AKT (protein kinase B), GSK-3β and p42/44 mitogen-activated protein kinase (MAPK) (ERK1/2) by immunoblotting in T24 (human urinary bladder carcinoma), B16F10 (mice melanoma) cell lines. Cells were cultured in the presence of 5-10-15 μM DEA for 6 hours. The cells were prepared and western blot analysis was carried out to perform both phosphorylated and non-phosphorylated forms of the previously listed proteins. […]
Background: A western blot detects proteins with antibodies after separation by electrophoresis.

For series [6] the following is noted: cited from earlier work.
For series [7] the following is noted: after administration of amiodarone; cited from earlier work.
For series [8] the following is noted: cited from earlier work. The source holds these as a separate data set.

Regarding `CCCCc1oc2ccccc2c1C(=O)c1cc(I)c(OCCNCC)c(I)c1` [DEA, (2-butyl-3-benzofuranyl)[4-[2-(ethylamino)ethoxy]-3,5-diiodophenyl]-methanone], the “Viability of T24 cells (MTT)” value in series [1] was “Significantly different from control group at p<0.01”. Moreover, in series [2], the “Viability of B16F10 cells (MTT)” value is recorded as “Significantly different from control group at p<0.01”. Besides, the “Viability of DU-145 cells (MTT)” value in series [3] is on record as “induces cell death”. Further, in series [4], the “Colony formation, B16F10” value is “significant decrease in the number and the size of colonies”. Besides, the “Akt (Ser473) phosphorylation” value in series [5] is given as “repressed Akt (Ser473) phosphorylation in a concentration-dependent manner”. In series [6] (after amiodarone in therapeutic doses), the “Concentration in patient plasma” value is 1700 to 4500 nM. Also, the Mean elimination half-life in series [6] (in vivo) was 40 days. For the same compound, the “Concentration in the lungs” value in series [7] is reported as “can reach mM concentrations”. Besides, in series [8], the Plasma protein binding result is reported as “strongly bound to plasma proteins”.
